Data reported in US4857455A, “Method for the determination of peroxidase using fluorogenic substrates” (Syntex (U.S.A) Inc., priority 1982, dated 1989).
“And” between values parts separate entries of the source, which are not always exact repeats. Equal values may be shown once. Each block holds one molecule with its values, some of them ahead of it.

What was measured:
Type in all cases: biochemical, horseradish
horse radish peroxidase [1] = biological target: T1, horse radish peroxidase (Armoracia rusticana, UniProt P00433); experiment: change in fluorescence of substrate with HRP and hydrogen peroxide over 60 seconds; settings: substrate 800 μl, H2O2 100 μl, 60 second interval, pH 8
T1 sequence (P00433 31-353): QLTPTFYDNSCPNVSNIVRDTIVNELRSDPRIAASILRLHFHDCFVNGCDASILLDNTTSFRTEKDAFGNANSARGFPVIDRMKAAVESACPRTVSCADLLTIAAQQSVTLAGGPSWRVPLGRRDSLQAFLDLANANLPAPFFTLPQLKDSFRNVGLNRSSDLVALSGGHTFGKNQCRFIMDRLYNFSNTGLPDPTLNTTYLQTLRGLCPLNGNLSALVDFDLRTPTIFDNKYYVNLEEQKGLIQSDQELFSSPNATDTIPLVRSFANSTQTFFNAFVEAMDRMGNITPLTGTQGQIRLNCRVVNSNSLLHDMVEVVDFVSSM
Experimental: (§1) In the next assay, the fluorogenic precursor of Example I was employed. […] An assay solution was prepared comprising the […] compound of Example I, hydrogen peroxide, horse radish peroxidase, and buffer (0.1M phosphate, pH 8.0) and the change in fluorescence in the solution determined over a 60 second interval. The substrate solution which was added was 3.9 mg/100 ml concentration in buffer, the hydrogen peroxide was 9.×10^-4 M, the HRP solution was 6.6 ng/ml containing 0.5 mgBSA/ml and the buffer was 0.1M phosphate, pH 8. The following table indicates the results.

horse radish peroxidase [2] = experiment: as above; settings: HRP solution (6.6 ng/ml) 0 μl, substrate 800 μl, H2O2 100 μl, buffer 100 μl; 60 second interval, pH 8
Experimental: as §1

HRP-antiPRP conjugate = biological target: T2, HRP-antiPRP conjugate (Armoracia rusticana, UniProt P00433); experiment: microtiter plate PRP immunoassay with HRP-antiPRP conjugate and fluorogenic substrate; settings: 10 minute incubation at 37° C.; for Fluorescence with PRP: 50 ng/ml PRP; for Fluorescence without PRP: PBS buffer instead of PRP
T2 construct: purchased Sigma
T2 sequence (P00433 31-338 limits assumed): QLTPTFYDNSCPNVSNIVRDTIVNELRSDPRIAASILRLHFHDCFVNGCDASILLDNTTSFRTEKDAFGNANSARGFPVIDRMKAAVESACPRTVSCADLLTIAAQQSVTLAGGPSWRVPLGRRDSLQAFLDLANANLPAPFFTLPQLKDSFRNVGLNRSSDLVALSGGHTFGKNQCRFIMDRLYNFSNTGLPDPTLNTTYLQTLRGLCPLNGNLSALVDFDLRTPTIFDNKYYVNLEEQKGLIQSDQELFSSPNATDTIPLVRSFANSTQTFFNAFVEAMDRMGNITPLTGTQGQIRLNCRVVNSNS
Experimental: Microtiter plate wells were coated with a solution (250 μl/well) of an amine modified glucose oxidase (1 to 190 dilution, 7.6 mg/ml stock solution) and antibodies to polyribosephosphate (1:2000 dilution in 60 mM carbonate buffer, pH 9.6). After standing overnight, the wells were washed with PBS containing 0.05% Tween 20 (W/V).
A stock solution was prepared of the fluorogenic substrate of Example II. A 3.8 mg/10 ml DMF solution (1.22 mM) was diluted 1:10 with PBS buffer immediately before use. A substrate mixture was prepared containing 500 μl of the above stock solution, 694 μl of 1.8M glucose, 400 μl of a stock catalase solution and the volume brought to 2 ml with PBS buffer. The stock catalase solution (3.1-4 mg/ml) was prepared by dialysing catalase (C-100 Sigma) in PBS pH 7.2.
The following protocol was then employed for the assay. Into each microtiter well coated with amino glucose oxidase (see copending application serial No. 398,505, filed July 15, 1982) and antiPRP was added 100 μl of 50 ng/ml PRP or 100 μl of PBS buffer (pH 7.2) and the mixture incubated for one hour at room temperature. At the end of this time, 50 μl of HRP-antiPRP conjugate was added followed by another one hour incubation. At the end of this time, 100 μl of a substrate mixture was added, followed by a 10 minute incubation at 37° C. with shaking, after which time 200 μl of the incubation mixture was diluted with 1.8 ml, of 0.1M phosphate buffer (pH 8.0) and the fluorescence read.

HRP = biological target: T3, HRP (Armoracia rusticana, UniProt P00433); experiment: qualitative test as HRP substrate (generation of a fluorescent product with HRP and H2O2); settings: with HRP and H2O2 in aqueous solution, result in words
T3 sequence (P00433 31-353): T1 sequence (P00433 31-353)
Experimental: The sample was filtered through a sintered glass filter to obtain a clear solution, the solvent evaporated and the residue dissolved in 5 ml DMF. The solution was then evaporated to dryness, dissolved in 1 ml. DMF, followed by a dilution with 4 ml buffer and an assay carried out as described previously employing 100 microliters of the substrate.

[3] = HRP-antiPRP dilution 0 (no conjugate)

Structure (SMILES): Cc1cc(Oc2ccc3cc(C(=O)O)c(=O)oc3c2)ccc1N [Example II, 3-carboxy-7-(3'-methyl-4'-aminophenoxy)coumarin]
- Fluorescence with PRP (HRP-antiPRP conjugate; [3]): 2.2
- Fluorescence without PRP (HRP-antiPRP conjugate; [3]): 2.4
- Fluorescence with PRP (HRP-antiPRP conjugate; HRP-antiPRP dilution 1:80): 79.5
- Fluorescence without PRP (HRP-antiPRP conjugate; HRP-antiPRP dilution 1:80): 67.1
- Fluorescence with PRP (HRP-antiPRP conjugate; HRP-antiPRP dilution 1:320): 31.8 and 29.6 and 32.5
- Fluorescence without PRP (HRP-antiPRP conjugate; HRP-antiPRP dilution 1:320): 11.0 and 14.2 and 13.4
- Fluorescence with PRP (HRP-antiPRP conjugate; HRP-antiPRP dilution 1:1280): 13.8
- Fluorescence without PRP (HRP-antiPRP conjugate; HRP-antiPRP dilution 1:1280): 5.2

Structure (SMILES): Cc1cc(Oc2ccc3cc(C(=O)N[C@H]4C(O)O[C@H](CO)[C@@H](O)[C@@H]4O)c(=O)oc3c2)ccc1N (stereo partly shown) [Example V, glucosamine derivative of 3-carboxy-7-(3'-methyl-4'aminophenoxy)coumarin]
- activity as HRP substrate (HRP): active as an HRP substrate

Structure (SMILES): Cc1cc(Oc2ccc3cc(C(=O)O)c(=O)oc3c2)cc(Br)c1N [Example VI, 3-carboxy-7-(3'-methyl-4'-amino-5'-bromophenoxy)coumarin]
- activity as HRP substrate (HRP): active HRP substrate

The next lines start with the values.

- ΔF (horse radish peroxidase [1]; HRP solution (6.6 ng/ml) 20 μl, buffer 80 μl): 11.0
- ΔF (horse radish peroxidase [1]; HRP solution (6.6 ng/ml) 50 μl, buffer 50 μl): 16.2
- ΔF (horse radish peroxidase [1]; HRP solution (6.6 ng/ml) 100 μl, buffer 0 μl): 29.7 and 30.4
- ΔF (horse radish peroxidase [2]): 6.6
Structure (SMILES): Nc1ccc(Oc2ccc3cc(C(=O)O)c(=O)oc3c2)cc1 [Example I, 3-carboxy-7-(4'-aminophenoxy)coumarin]

- activity as HRP substrate (HRP): useful as an HRP substrate
Structure (SMILES): O=C(O)CNc1ccc(Oc2ccc3cc(C(=O)O)c(=O)oc3c2)cc1 [Example III, 3-carboxy-7-(N-carboxymethyl 4'-aminophenoxy)coumarin]

- activity as HRP substrate (HRP): useful as a HRP substrate
Structure (SMILES): Cc1cc(Oc2ccc3cc(C(=O)NCCS(=O)(=O)O)c(=O)oc3c2)ccc1N [Example IV, taurine derivative of 3-carboxy-7-(3'-methyl-4'-aminophenoxy)coumarin]
